From ChEMBL document CHEMBL1124186, “Synthesis and evaluation of tylosin-related macrolides modified at the aldehyde function: a new series of orally effective antibiotics” (1988)
≈ marks a conversion by molar mass, not a printed value.

What was measured:
Bacteroides fragilis [1] = assay: In vitro antimicrobial activity against anaerobic bacteria bacteroides fragilis 111; assay type: functional
Bacteroides fragilis [2] = assay: In vitro antimicrobial activity against anaerobic bacteria bacteroides fragilis 1877; assay type: functional
Bacteroides fragilis [3] = assay: In vitro antimicrobial activity against anaerobic bacteria bacteroides fragilis 1936B,; assay type: functional
Eikenella corrodens = assay: In vitro antimicrobial activity against anaerobic bacteria bacteroides corrodens 1874; assay type: functional
Phocaeicola vulgatus = assay: In vitro antimicrobial activity against anaerobic bacteria bacteroides vulgatus 1211; assay type: functional
[4] = system: Prevotella melaninogenica; assay: In vitro antimicrobial activity against anaerobic bacteria bacteroides melaninogenicus 1856,; assay type: functional
[5] = system: Bacteroides thetaiotaomicron; assay: In vitro antimicrobial activity against anaerobic bacteria bacteroides thetaiotaomicron 1438; assay type: functional
Clostridioides difficile = assay: In vitro antimicrobial activity against anaerobic bacteria Clostridium difficile 2994; assay type: functional
Clostridium perfringens = assay: In vitro antimicrobial activity against anaerobic bacteria clostridium perfringens 81,; assay type: functional
Clostridium septicum = assay: In vitro antimicrobial activity against anaerobic bacteria clostridium septicum 1128; assay type: functional
Chlamydia trachomatis = assay: In vitro antimicrobial activity against chlamydia trachomatis.; assay type: functional
Fusobacterium = assay: In vitro antimicrobial activity against anaerobic bacteria fusobacterium symbiosum 1470; assay type: functional
Haemophilus influenzae [6] = assay: In vitro antimicrobial activity against aerobic bacteria Haemophilus influenzae 76; assay type: functional
Haemophilus influenzae [7] = assay: In vitro antimicrobial activity against aerobic bacteria Haemophilus influenzae MX366,; assay type: functional
Haemophilus influenzae [8] = assay: In vitro antimicrobial activity against Haemophilus influenzae.; assay type: functional
[9] = system: Haemophilus parainfluenzae; assay: In vitro antimicrobial activity against aerobic bacteria Haemophilus parainfluenzae 9796; assay type: functional
[10] = In vitro antimicrobial activity against anaerobic bacteria peptostreptococcus intermedius 1264; assay type: functional
[11] = system: Peptoniphilus asaccharolyticus; assay: In vitro antimicrobial activity against anaerobic bacteria peptococcus asaccharolyticus 1302; assay type: functional
Anaerococcus prevotii = assay: In vitro antimicrobial activity against anaerobic bacteria peptococcus prevoti 1281; assay type: functional
Cutibacterium acnes = assay: In vitro antimicrobial activity against anaerobic bacteria propionibacterium acnes 79; assay type: functional
Streptococcus [12] = assay: In vitro antimicrobial activity against aerobic bacteria Streptococcus B 8; assay type: functional
Streptococcus [13] = assay: In vitro antimicrobial activity against aerobic bacteria Streptococcus C 24; assay type: functional
Streptococcus [14] = assay: In vitro antimicrobial activity against aerobic bacteria Streptococcus D 8043; assay type: functional
Streptococcus [15] = assay: In vitro antimicrobial activity against aerobic bacteria Streptococcus D 9960; assay type: functional
Streptococcus [16] = assay: In vitro antimicrobial activity against aerobic bacteria Streptococcus G Kruder; assay type: functional; conditions: Streptococcus; read-out: MIC
[17] = system: Staphylococcus epidermidis; assay: In vitro antimicrobial activity against aerobic bacteria Streptococcus epi 270; assay type: functional
Staphylococcus aureus [18] = assay: In vitro antimicrobial activity against Staphylococcus aureus X1; assay type: functional
Staphylococcus aureus [19] = assay: In vitro antimicrobial activity against aerobic bacteria Staphylococcus aureus 513E; assay type: functional
Staphylococcus aureus [20] = assay: In vitro antimicrobial activity against aerobic bacteria Staphylococcus aureus V140,; assay type: functional
Staphylococcus aureus [21] = assay: In vitro antimicrobial activity against aerobic bacteria Staphylococcus aureus V41; assay type: functional
Staphylococcus aureus [22] = assay: In vitro antimicrobial activity against aerobic bacteria Staphylococcus aureus X400; assay type: functional
Streptococcus pneumoniae [23] = assay: In vitro antimicrobial activity against aerobic bacteria Streptococcus pneumoniae B1-438; assay type: functional, streptococcus pneum
Streptococcus pyogenes [24] = assay: In vivo effective dose against Streptococcus pyogenes C203 when administered orally; assay type: functional; conditions: po
Streptococcus pyogenes [25] = assay: In vivo effective dose against Streptococcus pyogenes C203 when administered sc; assay type: functional
Streptococcus sanguinis = assay: In vitro antimicrobial activity against aerobic bacteria Streptococcus sanguis MX132; assay type: functional
Streptococcus pneumoniae [26] = assay: In vitro antimicrobial activity against Streptococcus pneumoniae; assay type: functional
[27] = system: Staphylococcus epidermidis; assay: In vitro antimicrobial activity against Staphylococcus epidermidis EPI1; assay type: functional
[28] = system: Staphylococcus epidermidis; assay: In vitro antimicrobial activity against aerobic bacteria Streptococcus epi 222; assay type: functional
Enterococcus faecium = assay: In vitro antimicrobial activity against Streptococcus faecium X66; assay type: functional, streptococcus fae-cium
Streptococcus pyogenes [29] = assay: In vitro antimicrobial activity against Streptococcus pyogenes C203; assay type: functional
Streptococcus viridans = assay: In vitro antimicrobial activity against aerobic bacteria Streptococcus viridans 9943; assay type: functional
Streptococcus [30] = assay: In vitro antimicrobial activity against aerobic bacteria Streptococcus B 5; assay type: functional
Staphylococcus aureus [31] = assay: In vitro antimicrobial activity against aerobic bacteria Staphylococcus aureus V135; assay type: functional
Haemophilus influenzae [32] = assay: In vitro antimicrobial activity against aerobic bacteria Haemophilus influenzae 465; assay type: functional
[33] = system: Prevotella melaninogenica; assay: In vitro antimicrobial activity against anaerobic bacteria bacteroides melaninogenicus 2736; assay type: functional
[34] = system: Fusobacterium necrophorum; assay: In vitro antimicrobial activity against anaerobic bacteria usobacterium necrophorum 6054A; assay type: functional
Collinsella aerofaciens = assay: In vitro antimicrobial activity against anaerobic bacteria eubacterium aerofaciens 1235; assay type: functional
Streptococcus [35] = assay: In vitro antimicrobial activity against aerobic bacteria Streptococcus D 2041; assay type: functional
[36] = system: Peptostreptococcus anaerobius; assay: In vitro antimicrobial activity against anaerobic bacteria eubacterium peptostreptococcus anaerobius 1428,; assay type: functional
Streptococcus pyogenes [37] = assay: Antimicrobial activity against Streptococcus pyogenes C203; assay type: functional

CC[C@H]1OC(=O)C[C@@H](O)[C@H](C)[C@@H](O[C@@H]2O[C@H](C)[C@@H](O[C@H]3C[C@@](C)(O)[C@@H](O)[C@H](C)O3)[C@H](N(C)C)[C@H]2O)[C@@H](CC=O)C[C@@H](C)C(=O)/C=C/C(C)=C/[C@@H]1CO
MIC (Bacteroides fragilis [1]): 2 µg/mL (≈ 2.7 µM) | MIC (Bacteroides fragilis [2]): 4 µg/mL (≈ 5.39 µM) | MIC (Bacteroides fragilis [3]): 2 µg/mL (≈ 2.7 µM) | MIC (Eikenella corrodens): 2 µg/mL (≈ 2.7 µM) | MIC (Phocaeicola vulgatus): 2 µg/mL (≈ 2.7 µM) | MIC [4]: 0.5 µg/mL (≈ 0.674 µM) | MIC [5]: 2 µg/mL (≈ 2.7 µM) | MIC (Clostridioides difficile): 1 µg/mL (≈ 1.35 µM) | MIC (Clostridium perfringens): 0.5 µg/mL (≈ 0.674 µM) | MIC (Clostridium septicum): 0.5 µg/mL (≈ 0.674 µM) | MIC (Chlamydia trachomatis): 1 µg/mL (≈ 1.35 µM) | MIC (Fusobacterium): 0.5 µg/mL (≈ 0.674 µM) | MIC (Haemophilus influenzae [6]): 4 µg/mL (≈ 5.39 µM) | MIC (Haemophilus influenzae [7]): 2 µg/mL (≈ 2.7 µM) | MIC (Haemophilus influenzae [8]): 4 µg/mL (≈ 5.39 µM) | MIC [9]: 8 µg/mL (≈ 10.8 µM) | MIC [10]: 0.25 µg/mL (≈ 0.337 µM) | MIC [11]: < 0.03 µg/mL | MIC (Anaerococcus prevotii): 8 µg/mL (≈ 10.8 µM) | MIC (Cutibacterium acnes): 0.25 µg/mL (≈ 0.337 µM) | MIC (Streptococcus [12]): 0.25 µg/mL (≈ 0.337 µM) | MIC (Streptococcus [13]): 0.25 µg/mL (≈ 0.337 µM) | MIC (Streptococcus [14]): 0.5 µg/mL (≈ 0.674 µM) | MIC (Streptococcus [15]): 1 µg/mL (≈ 1.35 µM) | MIC (Streptococcus [16]): 0.25 µg/mL (≈ 0.337 µM) | MIC [17]: > 128 µg/mL | MIC (Staphylococcus aureus [18]): 1 µg/mL (≈ 1.35 µM) | MIC (Staphylococcus aureus [19]): 1 µg/mL (≈ 1.35 µM) | MIC (Staphylococcus aureus [20]): 2 µg/mL (≈ 2.7 µM) | MIC (Staphylococcus aureus [21]): 1 µg/mL (≈ 1.35 µM) | MIC (Staphylococcus aureus [22]): 2 µg/mL (≈ 2.7 µM) | MIC (Streptococcus pneumoniae [23]): 128 µg/mL (≈ 173 µM) | ED50 (Streptococcus pyogenes [24]): 82 mg/kg | ED50 (Streptococcus pyogenes [25]): 1.9 mg/kg | MIC (Streptococcus sanguinis): 0.25 µg/mL (≈ 0.337 µM) | MIC (Streptococcus pneumoniae [26]): 0.5 µg/mL (≈ 0.674 µM) | MIC [27]: 1 µg/mL (≈ 1.35 µM) | MIC [28]: 0.25 µg/mL (≈ 0.337 µM) | MIC (Enterococcus faecium): 1 µg/mL (≈ 1.35 µM) | MIC (Streptococcus pyogenes [29]): 0.25 µg/mL (≈ 0.337 µM) | MIC (Streptococcus viridans): > 128 µg/mL | MIC (Streptococcus [30]): 0.5 µg/mL (≈ 0.674 µM) | MIC (Staphylococcus aureus [31]): 2 µg/mL (≈ 2.7 µM) | MIC (Haemophilus influenzae [32]): 8 µg/mL (≈ 10.8 µM) | MIC [33]: 2 µg/mL (≈ 2.7 µM) | MIC [34]: 0.12 µg/mL (≈ 0.162 µM) | MIC (Collinsella aerofaciens): 0.12 µg/mL (≈ 0.162 µM) | MIC (Streptococcus [35]): 0.5 µg/mL (≈ 0.674 µM) | MIC [36]: 4 µg/mL (≈ 5.39 µM) | MIC (Streptococcus pyogenes [37]): 0.25 µg/mL (≈ 0.337 µM)
